The source made the active and inactive calls. How the calls were made is not given here.
Legend:
[1] = target: T1, Neuropeptide Y receptor type 2 (Homo sapiens, UniProt P49146); experiment: Partial antagonist activity at neuropeptide Y receptor Y2; format: functional
T1 sequence (P49146 whole entry): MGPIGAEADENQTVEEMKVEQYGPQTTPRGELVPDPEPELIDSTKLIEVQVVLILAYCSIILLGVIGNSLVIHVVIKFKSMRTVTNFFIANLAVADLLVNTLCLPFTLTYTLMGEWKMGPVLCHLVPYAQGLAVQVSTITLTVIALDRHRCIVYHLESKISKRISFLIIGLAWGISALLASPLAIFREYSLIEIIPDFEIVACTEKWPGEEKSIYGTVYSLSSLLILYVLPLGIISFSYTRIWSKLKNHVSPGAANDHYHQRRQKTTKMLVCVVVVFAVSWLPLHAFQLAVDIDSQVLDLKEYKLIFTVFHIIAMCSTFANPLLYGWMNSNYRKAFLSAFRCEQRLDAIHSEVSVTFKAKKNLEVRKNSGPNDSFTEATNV

[2] = target: T2, Neuropeptide Y receptor type 1 (Homo sapiens) (UniProt P25929); experiment: Antagonist activity at neuropeptide Y receptor Y1 at 10 uM; format: functional
T2 sequence (whole entry): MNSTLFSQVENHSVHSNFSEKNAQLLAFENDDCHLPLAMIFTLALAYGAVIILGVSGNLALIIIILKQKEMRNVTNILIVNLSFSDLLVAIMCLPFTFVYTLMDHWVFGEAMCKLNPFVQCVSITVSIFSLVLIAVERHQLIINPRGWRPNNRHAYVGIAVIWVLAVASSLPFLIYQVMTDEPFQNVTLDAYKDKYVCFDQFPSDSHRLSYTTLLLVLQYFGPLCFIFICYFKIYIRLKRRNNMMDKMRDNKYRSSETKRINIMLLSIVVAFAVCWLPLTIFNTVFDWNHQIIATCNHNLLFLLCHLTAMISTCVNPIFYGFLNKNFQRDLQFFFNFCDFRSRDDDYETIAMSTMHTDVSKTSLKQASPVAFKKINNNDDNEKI

IC50 [1]: 238 nM | Activity [2]: inactive
Compound: CCOC(=O)c1cccc(NC(=S)N2CCC(C(O)(c3ccccc3)c3ccccc3)CC2)c1
